Data published in US12325688B2, “Gingerenone A prodrugs as sensotherapeutics and methods of use” (The U.S.A., as Represented by the Secretary, Department of …, priority 2022, dated 2025).
Entries after “also recorded” stand apart in the source; their conditions may differ.

Assays:
Assay type in all cases: cell-based, human
[1] = system: IR-induced senescent WI-38 fibroblasts; assay: MTT cell viability assay, senescent cells; conditions: for senolytic activity (selective decrease of viability of senescent cells): components at 100 μM, 6-shogaol 3.6 μM, 8-shogaol 33 μM, 6-gingerol 20 μM; for senescent cell viability: D+Q 250 nM dasatinib + 10 μM quercetin, gingerenone A 20 μM, 6-shogaol 72.4 nM
Method: Cell culture and treatments: WI-38 human diploid fibroblasts (HDFs) were cultured in Dulbecco's modified Eagle's medium (DMEM) supplemented with 10% heat-inactivated fetal bovine serum (FBS), penicillin and streptomycin, and non-essential amino acids at 37° C. in a 5% CO2 incubator. HDFs were rendered senescent by exposure to 10 Gy of ionizing radiation (IR) and then cultured for an additional ten days. Proliferating and senescent WI-38 cells were seeded in triplicate overnight at 2×10^5 cells/well (in 6 well plates) to achieve ˜-60% confluence by the next day. Cells were then treated with the extracts for times indicated. […]
MTT cell viability: The MTT assay (BioVision Milpitas, CA) was carried out following the manufacturer's protocol. Briefly, the media was gently removed from each well and 50 μl of serum-free medium+50 μl of Solution A were added to each well. The plates were incubated at 37° C. for MTT reduction into formazan for 3 h. Next, 150 μl Solution B was added to each well and the plate was covered with foil and shaken at 600 rpm for 15 min. The absorbance was measured at 590 nm using Enspire, Perkin Elmer Multimode plate reader. […]
WI-38 fibroblasts were rendered senescent by exposure to ionizing radiation (IR, 10 Gy) and cultured for an additional 10 days. […] Data represent the means and standard error from three biological replicates. The major components of ginger extract, namely 6-gingerol, 8-gingerol, 10-gingerol, 6-shogaol, 8-shogaol, gingerenone A, and zingerone, were screened for their ability to selectively decrease cell viability of senescent cells using the MTT assay (FIG. 10A).

[2] = system: senescent WI-38 fibroblasts; assay: Secreted SASP cytokines and chemokines (ELISA, multiplex, V-PLEX)
Method: Secreted protein analysis—ELISA, Luminex Multiplex and V-PLEX: Media was collected at the earliest timepoint (24 h after treatments) to avoid cell death that could interfere with the assay. The media was centrifuged at 1000×g for 5 min to remove debris. The secretion of IL-6 was measured by the Quantikine ELISA Kit (R&D systems) and the expression of pro-inflammatory cytokines and chemokines [IL-6, TNFα, CCL2 (MCP-1), IL-8, IFNβ] was also assessed by multiplex assays (customized Luminex plate, R&D) according to the manufacturer's instructions. The V-PLEX Plus Proinflammatory Panel 1 Human Kit and the Chemokine Panel 1 preparation and detection were carried out following the manufacturer's protocol (Mesoscale Diagnostics) using >80% confluency of proliferating or senescent cells on 24-well plates. Briefly, different concentrations of standards and samples were added to the plates, and they were incubated for 2 h on a microplate shaker. The plates were washed, and the corresponding detection antibody mixture was added to each well and incubated for 1 h with shaking. The plates were washed twice then Read buffer was added to each well. The plates were read on the MESO Quickplex SQ 120 (MSD, Rockville, MD) and protein concentrations were determined using MSD Discovery workbench 4.0. The effects of gingerenone A, 6-shogaol and D+Q on cytokines and chemokines that are known to be part of the senescence-associated secretory phenotype (SASP) were tested. WI-38 fibroblasts were rendered senescent by exposure to ionizing radiation (IR, 10 Gy) and cultured for an additional 10 days. Cells were then treated with gingerenone A (20 μM) and 6-shogaol (72.4 nM) and incubated for 24 h. CCL-2 (MCP-1) and IL-10 were measured using the Bio-plex (Multiplex); IL6 was measured using Quantikine IL-6 (R&D) (FIG. 12A). Data were normalized to cell number/total protein content. Data in graphs represent the means and standard error from three biological replicates. […] Ratios of cleaved pro-caspase 3 to total caspase 3, normalized to ACTB levels, are shown as relative to control proliferating cells. Cytokines (FIG. 13A) and chemokines (FIG. 13B) were measured using the V-plex panel (MSD) after treatment for 24 h with the indicated drugs. Relative secretion was measured as pg/ml vs control normalized on TE. Data in the graphs represent the means and standard error from three biological replicates.

[3] = system: proliferating and senescent WI-38 fibroblasts; assay: Western blot of apoptotic pathway proteins; conditions: 48 h; for expression of anti-apoptotic protein Bcl-XL / levels of pro-apoptotic protein cleaved caspase-3: senescent cells
Method: Protein analysis: Cells were lysed in RIPA lysis buffer (Pierce, ThermoFisher) containing protease and phosphatase inhibitors (Roche) and incubated on ice for 10 min. The lysates were then sonicated for 5 min and centrifuged for 10 min at 4° C. to remove the insoluble fraction. The remaining supernatant was the whole-cell lysate. Lysates were separated by SDS-polyacrylamide gel electrophoresis (SDS-PAGE) and transferred onto nitrocellulose membranes (Biorad). Incubations with primary antibodies recognizing p21, p53, Beta-Actin (ACTB) (Santa Cruz Biotechnology), as well as caspase-3 (Abcam) and Bcl-XL (Cell Signaling) were followed by incubations with the appropriate secondary antibodies conjugated with horseradish peroxidase (GE Healthcare). Signals were developed using Enhanced Chemiluminescence (ECL) and acquired by using the ChemiDoc MP Imaging System (BioRad).
The effects of gingerenone A, 6-shogaol and D+Q on cytokines and chemokines that are known to be part of the senescence-associated secretory phenotype (SASP) were tested. WI-38 fibroblasts were rendered senescent by exposure to ionizing radiation (IR, 10 Gy) and cultured for an additional 10 days. Cells were then treated with gingerenone A (20 μM) and 6-shogaol (72.4 nM) and incubated for 24 h. CCL-2 (MCP-1) and IL-10 were measured using the Bio-plex (Multiplex); IL6 was measured using Quantikine IL-6 (R&D) (FIG. 12A). Data were normalized to cell number/total protein content. Data in graphs represent the means and standard error from three biological replicates. […] Ratios of cleaved pro-caspase 3 to total caspase 3, normalized to ACTB levels, are shown as relative to control proliferating cells. Cytokines (FIG. 13A) and chemokines (FIG. 13B) were measured using the V-plex panel (MSD) after treatment for 24 h with the indicated drugs. Relative secretion was measured as pg/ml vs control normalized on TE. Data in the graphs represent the means and standard error from three biological replicates.
To determine whether gingerenone A and 6-shogaol might influence the apoptotic pathway, their effect on the levels of cleaved caspase-3 (pro-apoptotic marker), and Bcl-XL (anti-apoptotic protein) (FIG. 12B) was tested. […] However, D+Q, gingerenone A, and 6-shogaol all reduced the expression of the anti-apoptotic protein Bcl-XL in senescent cells (FIG. 12B, right).

[4] = system: proliferating WI-38 fibroblasts; assay: MTT cell viability assay, proliferating cells; conditions: 48 h; D+Q 250 nM dasatinib + 10 μM quercetin, gingerenone A 20 μM, 6-shogaol 72.4 nM
Method: Cell culture and treatments: WI-38 human diploid fibroblasts (HDFs) were cultured in Dulbecco's modified Eagle's medium (DMEM) supplemented with 10% heat-inactivated fetal bovine serum (FBS), penicillin and streptomycin, and non-essential amino acids at 37° C. in a 5% CO2 incubator. HDFs were rendered senescent by exposure to 10 Gy of ionizing radiation (IR) and then cultured for an additional ten days. Proliferating and senescent WI-38 cells were seeded in triplicate overnight at 2×10^5 cells/well (in 6 well plates) to achieve ˜-60% confluence by the next day. Cells were then treated with the extracts for times indicated.
In 24-well plates, cells were treated with multiple dilutions (1:200 and 1:500) of Harpagophytum procumbens (Devil's Claw) (herb to menstruum ratio, 1:3), Uncaria tomentosa (Cat's Claw) (herb to menstruum ratio, 1:3), Zingiber officinale Rosc. […]
MTT cell viability: The MTT assay (BioVision Milpitas, CA) was carried out following the manufacturer's protocol. […] The absorbance was measured at 590 nm using Enspire, Perkin Elmer Multimode plate reader.
Four plant extracts were screened for senolytic activity, including extracts from Harpagophytum procumbens (Devil's Claw), Uncaria tomentosa (Cat's Claw), Zingiber officinale Rosc. […] In FIG. 8B, the impact on ginger extract on proliferating and senescent cells on cell survival was assessed by the MTT cell viability assay.

Question: With `CCCCC[C@H](O)CC(=O)CCc1ccc(O)c(OC)c1` [6-gingerol] as the molecule, how does the “senolytic activity (selective decrease of viability of senescent cells)” value ([1]; 72 h) read?
Answer: The value was “only 6-shogaol and gingerenone A displayed senolytic activity”.

Question: With `CCCCCCCCC[C@H](O)CC(=O)CCc1ccc(O)c(OC)c1` [10-gingerol] as the molecule, how does the “senolytic activity (selective decrease of viability of senescent cells)” value ([1]; 72 h) read?
Answer: The value was “only 6-shogaol and gingerenone A displayed senolytic activity”.

Question: With `CCCCCCC[C@H](O)CC(=O)CCc1ccc(O)c(OC)c1` [8-gingerol] as the molecule, how does the “senolytic activity (selective decrease of viability of senescent cells)” value ([1]; 72 h) read?
Answer: Its value is “only 6-shogaol and gingerenone A displayed senolytic activity”.

Question: For `CCCCC/C=C/C(=O)CCc1ccc(O)c(OC)c1` [6-shogaol], which “changes in any of the cytokines and chemokines measured” value ([2]; 24 h, 72.4 nM) is on record?
Answer: The value was “did not induce major changes”.

Question: What about the “expression of anti-apoptotic protein Bcl-XL” value [3] of the same molecule?
Answer: The value was “reduced”.

Question: And the “levels of pro-apoptotic protein cleaved caspase-3” value [3]?
Answer: Its value is “increase”.

Question: And the senescent cell viability ([1]; 48 h)?
Answer: The senescent cell viability was “moderate degree of cell death”.

Question: What about the “senolytic activity (selective decrease of viability of senescent cells)” value ([1]; 72 h) of the same molecule?
Answer: The value was “displayed senolytic activity”.

Question: What about the “effect on proliferating (non-irradiated) cells” value [4] of the same molecule?
Answer: The value was “significant increase”.

Question: `CCCCCCC/C=C/C(=O)CCc1ccc(O)c(OC)c1` [8-shogaol] was tested. Which “senolytic activity (selective decrease of viability of senescent cells)” value ([1]; 72 h) did it give?
Answer: The value was “only 6-shogaol and gingerenone A displayed senolytic activity”.

Question: `COc1cc(CC/C=C/C(=O)CCc2ccc(O)c(OC)c2)ccc1O` [gingerenone A, Gingerenone A] was tested. Which “level of anti-inflammatory cytokine IL-13” value ([2]; 24 h, FIG. 13A) did it give?
Answer: Its value is “increased”.

Question: And the “level of pro-inflammatory cytokine IL-8” value ([2]; 24 h, FIG. 13A)?
Answer: Its value is “increased”.

Question: And the “level of IL-10” value ([2]; 24 h, V-plex, FIG. 13A)?
Answer: Its value is “unchanged”.

Question: What about the “level of IL-10, listed with IL-8 as pro-inflammatory cytokine” value ([2]; 24 h, V-plex, FIG. 13A) of the same molecule?
Answer: Its value is “increased”.

Question: What about the “secreted level of interferon γ-induced protein 10 (IP-10)” value ([2]; 24 h, V-plex, FIG. 13B) of the same molecule?
Answer: Its value is “reduced”.

Question: And the “level of anti-inflammatory cytokine IL-10” value ([2]; 24 h, multiplex ELISA (Bio-plex), FIG. 12A)?
Answer: Its value is “increase”.

Question: And the “secreted level of CCL2 (MCP-1)” value ([2]; 24 h, gingerenone A 20 μM, D+Q)?
Answer: Its value is “reduced”.

Question: And the “secreted level of IL-6” value ([2]; 24 h, gingerenone A 20 μM, D+Q)?
Answer: The value was “reduced”.

Question: What about the “secretion of pro-inflammatory SASP cytokine IL-1B” value ([2]; senescent cells) of the same molecule?
Answer: Its value is “increase”.

Question: What about the p53 levels ([3]; proliferating and senescent cells) of the same molecule?
Answer: Its p53 levels is “did not increase”.

Question: What about the “expression of anti-apoptotic protein Bcl-XL” value [3] of the same molecule?
Answer: The value was “reduced”.

Question: And the “levels of pro-apoptotic protein cleaved caspase-3” value [3]?
Answer: Its value is “increase”.

Question: And the “senescent cell viability relative to proliferating cells” value ([1]; 20 μM, 48 h)?
Answer: Its value is “significant decrease; also recorded: significantly decreased”.

Question: What about the “selectivity for senescent over proliferating cells” value ([1]; 48 h, 20 μM, compared to D+Q) of the same molecule?
Answer: Its value is “higher selectivity compared to D+Q”.

Question: And the senescent cell viability ([1]; 48 h)?
Answer: Its senescent cell viability is “significantly decreased”.

Question: And the “senolytic activity (selective decrease of viability of senescent cells)” value ([1]; 72 h)?
Answer: Its value is “displayed senolytic activity”.

Question: What about the IC50 ([1]; Homo sapiens, WI-38, light or radiation study, dose response 2.5-100 μM, 72 h, 10 days post-irradiation) of the same molecule?
Answer: Its IC50 is 19.6 ± 2.1 µM.

Question: What about the “effect on proliferating (non-irradiated) cells” value [4] of the same molecule?
Answer: Its value is “did not show any significant effect”.

Question: For `COc1cc(CCC(C)=O)ccc1O` [zingerone], which “senolytic activity (selective decrease of viability of senescent cells)” value ([1]; 72 h) is on record?
Answer: The value was “only 6-shogaol and gingerenone A displayed senolytic activity”.
